Test results published in article PMC5234683 (Psychopharmacology, 2014).
Read-outs that look alike come from different tables or passages of the source.

Assays:
[1] = biological target: DOR; details: read-out: Ki (nM) DOR; PDSP database; ref PDSP http://pdsp.med.unc.edu/; cited from earlier work
[2] = biological target: D4; details: read-out: Ki (nM) D4; PDSP database; ref PDSP http://pdsp.med.unc.edu/; cited from earlier work
[3] = biological target: MOR; details: read-out: Ki (nM) MOR; PDSP database; ref PDSP http://pdsp.med.unc.edu/; cited from earlier work
[4] = biological target: T1, D1R (Homo sapiens, UniProt P21728); test: Radioligand competition binding, [3H]-SCH23390, HEK293 membranes; details: competition with 0.5 nM [3H]-SCH23390; single site; n=3
[5] = biological target: D1; details: read-out: Ki (nM) D1; PDSP database; ref PDSP http://pdsp.med.unc.edu/; cited from earlier work
[6] = biological target: 5-HT3; details: read-out: Ki (nM) 5-HT3; PDSP database; ref PDSP http://pdsp.med.unc.edu/; cited from earlier work
[7] = biological target: H1; details: read-out: Ki (nM) H1; PDSP database; ref PDSP http://pdsp.med.unc.edu/; cited from earlier work
[8] = biological target: D2; details: read-out: Ki (nM) D2; PDSP database; ref PDSP http://pdsp.med.unc.edu/; cited from earlier work
[9] = biological target: CB2; details: read-out: Ki (nM) CB2; PDSP database; ref PDSP http://pdsp.med.unc.edu/; cited from earlier work
[10] = biological target: T2, D4R (Homo sapiens, UniProt P21917); test: Radioligand competition binding, [3H]-methylspiperone, CHO membranes; details: competition with 0.5 nM [3H]-methylspiperone; n=3
[11] = biological target: T3, D3R (Homo sapiens, UniProt P35462); test: Radioligand competition binding, [3H]-methylspiperone, HEK293 membranes; details: competition with 0.5 nM [3H]-methylspiperone; n=3
[12] = biological target: T1, D1R; details: agonist mode; tested up to 0.1 mM
[13] = biological target: H4; details: read-out: Ki (nM) H4; PDSP database; ref PDSP http://pdsp.med.unc.edu/; cited from earlier work
[14] = biological target: Sigma-1; details: read-out: Ki (nM) Sigma-1; PDSP database; ref PDSP http://pdsp.med.unc.edu/; cited from earlier work
[15] = biological target: D3; details: read-out: Ki (nM) D3; PDSP database; ref PDSP http://pdsp.med.unc.edu/; cited from earlier work
[16] = biological target: 5-HT2C; details: read-out: Ki (nM) 5-HT2C; PDSP database; ref PDSP http://pdsp.med.unc.edu/; cited from earlier work
[17] = biological target: Alpha2B; details: read-out: Ki (nM) Alpha2B; PDSP database; ref PDSP http://pdsp.med.unc.edu/; cited from earlier work
[18] = biological target: H2; details: read-out: Ki (nM) H2; PDSP database; ref PDSP http://pdsp.med.unc.edu/; cited from earlier work
[19] = biological target: D5; details: read-out: Ki (nM) D5; PDSP database; ref PDSP http://pdsp.med.unc.edu/; cited from earlier work
[20] = biological target: 5-HT5; details: read-out: Ki (nM) 5-HT5; PDSP database; ref PDSP http://pdsp.med.unc.edu/; cited from earlier work
[21] = biological target: 5-HT7; details: read-out: Ki (nM) 5-HT7; PDSP database; ref PDSP http://pdsp.med.unc.edu/; cited from earlier work
[22] = biological target: 5-HT2A; details: read-out: Ki (nM) 5-HT2A; PDSP database; ref PDSP http://pdsp.med.unc.edu/; cited from earlier work
[23] = biological target: 5-HT1E; details: read-out: Ki (nM) 5-HT1E; PDSP database; ref PDSP http://pdsp.med.unc.edu/; cited from earlier work
[24] = biological target: Alpha1B; details: read-out: Ki (nM) Alpha1B; PDSP database; ref PDSP http://pdsp.med.unc.edu/; cited from earlier work
[25] = biological target: H3; details: read-out: Ki (nM) H3; PDSP database; ref PDSP http://pdsp.med.unc.edu/; cited from earlier work
[26] = biological target: M5; details: read-out: Ki (nM) M5; PDSP database; ref PDSP http://pdsp.med.unc.edu/; cited from earlier work
[27] = biological target: Beta1; details: read-out: Ki (nM) Beta1; PDSP database; ref PDSP http://pdsp.med.unc.edu/; cited from earlier work
[28] = biological target: T1, D1R; test: HTRF cAMP assay; assay type: cell-based; details: agonist mode; Supplemental Fig. 1
[29] = biological target: D1-like receptors in bovine striatal membranes (Bos taurus, UniProt Q95136); test: Bovine striatal radioligand binding assay, [3H]-SCH23390; details: read-out: Ki, one-site fit, 0.5 nM [3H]-SCH23390
[30] = biological target: T4, D5R (Homo sapiens, UniProt P21918); test: DiscoveRx PathHunter β-arrestin-2 recruitment assay, CHO-K1 cells; assay type: cell-based; details: agonist mode; concentrations up to 100 μM
[31] = biological target: T5, D2R (Homo sapiens, UniProt P14416); assay type: cell-based; details: agonist mode; 100 μM forskolin
[32] = biological target: T2, D4R; test: DiscoveRx PathHunter β-arrestin-2 recruitment assay, CHO-K1 cells; assay type: cell-based; details: agonist mode; concentrations up to 100 μM
[33] = biological target: 5-HT6; details: read-out: Ki (nM) 5-HT6; PDSP database; ref PDSP http://pdsp.med.unc.edu/; cited from earlier work
[34] = biological target: DAT; details: read-out: Ki (nM) DAT; PDSP database; ref PDSP http://pdsp.med.unc.edu/; cited from earlier work
[35] = biological target: Beta2; details: read-out: Ki (nM) Beta2; PDSP database; ref PDSP http://pdsp.med.unc.edu/; cited from earlier work
[36] = biological target: T3, D3R; test: DiscoveRx PathHunter β-arrestin-2 recruitment assay, CHO-K1 cells; assay type: cell-based; details: agonist mode; concentrations up to 100 μM
[37] = biological target: 5-HT2B; details: read-out: Ki (nM) 5-HT2B; PDSP database; ref PDSP http://pdsp.med.unc.edu/; cited from earlier work
[38] = biological target: T5, D2R; test: Radioligand competition binding, [3H]-methylspiperone, HEK293 membranes; details: competition with 0.5 nM [3H]-methylspiperone; n=3
[39] = biological target: T4, D5R; test: DiscoveRx HitHunter cAMP accumulation assay, HEK293 cells; assay type: cell-based; details: agonist mode
[40] = test system: 5-HT1A receptor; details: ref Gao et al. 2011; Guo et al. 2009; cited from earlier work
[41] = biological target: 5-HT1B; details: read-out: Ki (nM) 5-HT1B; PDSP database; ref PDSP http://pdsp.med.unc.edu/; cited from earlier work
[42] = biological target: KOR; details: read-out: Ki (nM) KOR; PDSP database; ref PDSP http://pdsp.med.unc.edu/; cited from earlier work
[43] = biological target: NET; details: read-out: Ki (nM) NET; PDSP database; ref PDSP http://pdsp.med.unc.edu/; cited from earlier work
[44] = biological target: Alpha2A; details: read-out: Ki (nM) Alpha2A; PDSP database; ref PDSP http://pdsp.med.unc.edu/; cited from earlier work
[45] = biological target: D1R–D2R heteromer (Homo sapiens, UniProt P14416+P21728); test: D1R–D2R-mediated calcium mobilization assay, co-transfected HEK293T cells; assay type: cell-based
[46] = biological target: CB1; details: read-out: Ki (nM) CB1; PDSP database; ref PDSP http://pdsp.med.unc.edu/; cited from earlier work
[47] = biological target: Alpha2C; details: read-out: Ki (nM) Alpha2C; PDSP database; ref PDSP http://pdsp.med.unc.edu/; cited from earlier work
[48] = biological target: T5, D2R; test: DiscoveRx PathHunter β-arrestin-2 recruitment assay, CHO-K1 cells; assay type: cell-based; details: agonist mode; concentrations up to 100 μM
[49] = biological target: 5-HT1A; details: read-out: Ki (nM) 5-HT1A; PDSP database; ref PDSP http://pdsp.med.unc.edu/; cited from earlier work
[50] = biological target: SERT; details: read-out: Ki (nM) SERT; PDSP database; ref PDSP http://pdsp.med.unc.edu/; cited from earlier work
[51] = ref Sun et al. (2009); cited from earlier work
[52] = biological target: 5-HT1D; details: read-out: Ki (nM) 5-HT1D; PDSP database; ref PDSP http://pdsp.med.unc.edu/; cited from earlier work
[53] = biological target: M2; details: read-out: Ki (nM) M2; PDSP database; ref PDSP http://pdsp.med.unc.edu/; cited from earlier work
[54] = biological target: GABA-A; details: read-out: Ki (nM) GABA-A; PDSP database; ref PDSP http://pdsp.med.unc.edu/; cited from earlier work
[55] = biological target: T1, D1R; test: DiscoveRx PathHunter β-arrestin-2 recruitment assay, CHO-K1 cells; assay type: cell-based; details: agonist mode; concentrations up to 100 μM
[56] = biological target: Alpha1A; details: read-out: Ki (nM) Alpha1A; PDSP database; ref PDSP http://pdsp.med.unc.edu/; cited from earlier work
[57] = biological target: Sigma-2; details: read-out: Ki (nM) Sigma-2; PDSP database; ref PDSP http://pdsp.med.unc.edu/; cited from earlier work

COc1cc2c(cc1O)[C@@H]1Cc3ccc(O)c(OC)c3CN1CC2 [(−)-stepholidine, (−)-Stepholidine]
Ki [1]: > 10000 nM | Ki [2]: 3750 nM | Ki [3]: > 10000 nM | Ki [4]: 0.0051 ± 0.0023 µM | Ki [5]: 5.9 nM | Ki [6]: > 10000 nM | Ki [7]: > 10000 nM | Ki [8]: 974 nM | Ki [9]: > 10000 nM | Ki [10]: 1.45 µM | Ki [11]: 0.0234 ± 0.0087 µM | agonist activity, cAMP accumulation [12]: has no effect on cAMP accumulation | Ki [13]: > 10000 nM | Ki [14]: 1600 nM | Ki [15]: 30.1 nM | Ki [16]: > 10000 nM | Ki [17]: 6880 nM | Ki [18]: > 10000 nM | Ki [19]: 4.4 nM | Ki [20]: > 10000 nM | Ki [21]: > 10000 nM | Ki [22]: > 10000 nM | Ki [23]: > 10000 nM | Ki [24]: > 10000 nM | Ki [25]: > 10000 nM | Ki [26]: > 10000 nM | Ki [27]: > 10000 nM | agonist activity, cAMP accumulation (HTRF) [28]: did not stimulate D1R-mediated cAMP accumulation | Ki ([29]; control, absence of GTPγS): 0.016 ± 0.0024 µM | Ki ([29]; presence of 1 mM GTPγS): 0.0192 ± 0.0044 µM | agonist activity, β-arrestin-2 recruitment [30]: failed to produce any measurable recruitment of β-arrestin-2 | agonist activity, inhibition of forskolin-stimulated cAMP accumulation [31]: has no effect on inhibiting cAMP accumulation | agonist activity, β-arrestin-2 recruitment [32]: failed to produce any measurable recruitment of β-arrestin-2 | Ki [33]: > 10000 nM | Ki [34]: > 10000 nM | Ki [35]: > 10000 nM | agonist activity, β-arrestin-2 recruitment [36]: failed to produce any measurable recruitment of β-arrestin-2 | Ki [37]: 226 nM | Ki [38]: 0.0116 ± 0.0042 µM | agonist activity, cAMP accumulation [39]: failed to produce any measurable cAMP accumulation | functional profile at the 5-HT1A receptor [40]: partial agonist | Ki [41]: 6980 nM | Ki [42]: > 10000 nM | Ki [43]: > 10000 nM | Ki [44]: > 10000 nM | agonist activity, Ca2+ mobilization ([45]; agonist mode, concentrations up to 50 μM): no Ca^2+ mobilization was detected | IC50 ([45]; read-out: IC50, inhibition of dopamine-stimulated calcium mobilization, EC80 (1 μM) dopamine, n=3): 0.0193 ± 0.0037 µM | Ki [46]: > 10000 nM | Ki [47]: 214 nM | agonist activity, β-arrestin-2 recruitment [48]: failed to produce any measurable recruitment of β-arrestin-2 | Ki [49]: 143 nM | Ki [50]: > 10000 nM | metabolism after administration [51]: rapidly metabolized within minutes of administration | Ki [52]: > 10000 nM | Ki [53]: > 10000 nM | Ki [54]: > 10000 nM | agonist activity, β-arrestin-2 recruitment [55]: failed to produce any measurable recruitment of β-arrestin-2 | Ki [56]: > 10000 nM | Ki [57]: 53.4 nM
